Entries after “also recorded” stand apart in the source; their conditions may differ.
Key:
[1] = tested on: 1-LN human prostate tumor cells; assay: Binding of 125I-labeled Pg 2 glycoforms to 1-LN cells; conditions: for BINDING +6-AHA: binding to surface of 1-LN cells in presence of 6-AHA; for BINDING +6-AHA / BINDING +L-lactose: Yes/No; for BINDING +L-lactose: binding to surface of 1-LN cells in presence of L-lactose; for Binding to 1-LN cells: in words; for Bound (Molecules × 10^5/cell): maximal binding, mean ± SD
Description: Ligand Binding Analysis—Cells were grown in tissue culture plates until the monolayers were confluent. Prior to use in binding assays, the cells were washed in HBSS. All binding assays were performed at 4° C. in RPMI 1640 containing 2% bovine serum ablumin (BSA). Increasing concentrations of ^125I-labeled Pg 2 glycoforms were incubated with cells for 60 min in 48-well or 96-well culture plates, respectively. Free ligand was separated from bound by aspirating the incubation mixture by and washing the cell monolayers rapidly three times with RPMI 1640 containing 2% BSA. The cells were then lyzed with 0.1 M NaOH, and bound radioactivity was determined in a Pharmacia LKB Biotechnology 1272-gamma counter. Molecules of ligand bound were calculated after substraction of non-specific binding measured in the presence of nonlabeled 100 μM Pg 2. Estimates for dissociation constant (Kd) values and maximal binding of Pg 2 glycoforms (Bmax) were determined by fitting data directly to the Langmuir isotherm using the statistical program SYStat® for Windows.
Binding of Single Pg 2 Glycoforms to 1-LN Human Prostate Tumor Cells—Binding of ^125I-labeled single Pg 2 glycoforms to 1-LN cells was determined as described under Experimental Procedures. Native Pg 2 has six glycoforms which differ in their sialic acid content.
In order to assess the binding mechanism of the individual Pg 2 glycoforms to 1-LN cells, we studied their activation by cells incubated with each glycoform in the presence of 6-aminohexanoic acid (6-AHA) and L-lactose. The antifibrinolytic amino acid 6-AHA prevents interaction of Pg L-lysine binding sites with several cell membrane-associated components. L-lactose is a sugar which intereferes with binding of Neu 5-AC (α2-3) or (α2-6) residues to sialic acid binding proteins and inhibits binding of Native Pg 2 to DPP IV on the surface of rheumatoid synovial fibroblasts.

[2] = molecular target: T1, DPP IV isolated from 1-LN cell membranes (Homo sapiens, UniProt P27487); assay: Solid phase radioligand binding of Pg 2 glycoforms to immobilized DPP IV; conditions: for Binding to immobilized DPP IV: DPP IV 1 μg/ml coated on 96-well plates, in words
T1 construct: DPP IV from 1-LN cell membranes was purified to homogeneity as described under Experimental Procedures; endogenous in cells; host or cells: 1-LN human prostate tumor cells; Membranes were solubilized with Triton X-100; The enzyme was then purified on DEAE-Sepharose, Gly-Leu-Sepharose, concanavalin A-Sepharose and by gel filtration
Description: Purification of DPP IV from 1-LN Cell Membranes—Cells grown in 20 culture flasks (150 cm^2) were detached with 10 mM EDTA in Hanks' balanced salt solution (HBSS) and pelleted by centrifugation. The cell pellet was suspended in 10 ml of 20 mM Hepes, pH 7.2, containing 0.25 M sucrose and 0.5 mg/ml each of the following proteinase inhibitors: antipain-HCl, bestatin, chymostatin, transepoxysuccinyl-L-leucylamido-(4-guanidino)butane (E-64), leupeptin, pepstatin, O-phenanthroline, and aprotinin. Cells were lyzed by sonication on ice (five 10 s bursts with 30 s intervals). All procedures were performed at 4° C. The homogenate was centrifuged at 800×g for 15 min to remove unbroken cells and nuclei, followed by centrifugation of the supernatant at 50,000×g for 1 h. The pellet containing cell membranes was resuspended in 20 mM Tris-HCl, pH 8.0, containing 1% (v/v) Triton X-100 to solubilize membranes and centrifuged again at 50,000×g for 30 min to remove insoluble materials. DPP IV activity in this supernatant and in all the following purification steps was monitored by a chromogenic assay using the DPP IV substrate Gly-Pro-pNA [36]. The enzyme was sequentially purified to homogeneity using DEAE-Sepharose ion exchange chromatography and Gly-Leu-Sepharose affinity chromatography, followed by chromatography on concanavalin A-Sepharose and gel filtration on a Sepharose S-200 column. These steps yielded fully active DPP IV (˜40 μg/1×10^9 cells). […] A sample of the protein was analyzed by matrix-assisted laser desorption ionization-MS, and the obtained mass spectrometric peptide maps (30 peptides) were used to identify DPP IV in the OWL Protein database release 29.6 [38,39].
Solid Phase Radioligand Binding Studies—To study specific binding of Pg 2 glycoforms to immobilized DPP IV purified from 1-LN cells, 96-well strip plates were coated with DPP IV (1 μg/ml in 0.1 M sodium carbonate, pH 9.6, 200 μl/well, 37° C., 2 h). After coating, plates were washed with 200 μl of 10 mM sodium phosphate, 100 mM NaCl, pH 7.4, containing 0.05% Tween-80 (PBS-Tween) to remove unbound protein. Non-specific sites were blocked by incubating with PBS-Tween containing 2% BSA at room temperature for 1 h. Plates were rinsed twice with 200 μl of PBS-Tween, air dried, and stored at 4° C. For assays, increasing concentrations of ^125I-labeled Pg 2 glycoforms, with or without 50-fold excess of unlabeled ligands, were added to triplicate wells and incubated at 37° C. for 1 h. Following incubation, the supernatants were removed and the plates rinsed three times with 200 μl PBS-Tween. Wells were stripped from the plates and radioactivity measured. Specific binding was calculated by substraction of non-specific binding measured in the presence of unlabeled ligand.
Binding of Pg 2 Glycoforms to Immobilized DPP IV Isolated from 1-LN Cell Membranes—Once identified as a Pg receptor, DPP IV from 1-LN cell membranes was purified to homogeneity as described under Experimental Procedures. […] A blot binding assay with mAb clone in the Mr˜120,000 size range. […] DPP IV immobilization on cell culture plates and binding assays of Pg 2 glycoforms were performed as described under Experimental Procedures.

[3] = 125I-labeled glycoform, 1-LN cell monolayers, serum-free RPMI 1640, mean ± SD
[4] = 125I-labeled glycoform, 1-LN cell monolayers

T1 sequence (P27487 whole entry): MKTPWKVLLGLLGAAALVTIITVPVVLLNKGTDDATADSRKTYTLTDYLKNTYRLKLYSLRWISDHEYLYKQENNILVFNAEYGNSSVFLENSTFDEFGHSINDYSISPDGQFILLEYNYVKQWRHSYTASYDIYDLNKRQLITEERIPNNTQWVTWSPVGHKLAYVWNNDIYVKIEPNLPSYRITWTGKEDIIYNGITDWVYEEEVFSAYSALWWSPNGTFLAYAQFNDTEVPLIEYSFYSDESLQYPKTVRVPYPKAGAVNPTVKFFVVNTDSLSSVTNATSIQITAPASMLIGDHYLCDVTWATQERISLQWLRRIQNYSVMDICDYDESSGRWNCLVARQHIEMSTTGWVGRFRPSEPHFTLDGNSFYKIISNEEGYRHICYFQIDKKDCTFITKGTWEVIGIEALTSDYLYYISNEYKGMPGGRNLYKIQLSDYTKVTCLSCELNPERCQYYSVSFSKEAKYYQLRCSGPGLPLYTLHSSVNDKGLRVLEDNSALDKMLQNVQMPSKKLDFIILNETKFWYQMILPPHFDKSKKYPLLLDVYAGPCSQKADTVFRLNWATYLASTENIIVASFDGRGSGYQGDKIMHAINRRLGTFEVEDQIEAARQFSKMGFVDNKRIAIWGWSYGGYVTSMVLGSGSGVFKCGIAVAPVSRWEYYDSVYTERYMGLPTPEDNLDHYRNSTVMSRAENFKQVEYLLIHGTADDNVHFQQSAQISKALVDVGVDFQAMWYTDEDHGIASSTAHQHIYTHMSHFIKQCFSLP

| Compound | Inhibition of binding of single Pg 2 glycoforms to 1-LN cells ([1]; 125I-labeled glycoform 0.1 μM, increasing concentrations of inhibitor) | Inhibition of binding of 125I-labeled Pg 2γ, 2δ and 2ε to DPP IV ([2]; glycoforms 0.1 μM each, increasing concentrations of L-lactose) | Kd [1, 3] [nM] | BINDING +6-AHA [1] | BINDING +L-lactose [1] | Binding to 1-LN cells [1] | Bound (Molecules × 10^5/cell) [1, 4] [Molecules × 10^5/cell] | Binding to immobilized DPP IV [2] | Kd (nM) [1, 3] |
| --- | --- | --- | --- | --- | --- | --- | --- | --- | --- |
| OC[C@@H]1O[C@H](O[C@@H]2[C@@H](O)[C@H](O)C(O)O[C@H]2CO)[C@@H](O)[C@H](O)[C@@H]1O (stereo partly drawn) [L-lactose, reference compound] | inhibited binding of Pgs 2γ, 2δ, and 2ε | progressively inhibited |  |  |  |  |  |  |  |
| Pg 2α: glycoform of human plasminogen type 2 purified from plasma; 1.3 mol sialic acid/mol Pg |  |  | 24.3 ± 1.33 | No | Yes | bind to 1-LN cells in a dose-dependent manner with high affinity | 13.0 ± 4.6 | No specific binding |  |
| Pg 2β: glycoform of human plasminogen type 2 purified from plasma; 2.2 mol sialic acid/mol Pg |  |  | 7.4 ± 1.86 | No | Yes | bind to 1-LN cells in a dose-dependent manner with high affinity | 8.3 ± 1.3 | No specific binding |  |
| Pg 2γ: glycoform of human plasminogen type 2 purified from plasma; 2.95 mol sialic acid/mol Pg |  |  | 10.6 ± 1.43 | Yes | No | bind to 1-LN cells in a dose-dependent manner with high affinity | 8.6 ± 1.7 | bind to this DPP IV in a dose-dependent and saturable manner |  |
| Pg 2δ: glycoform of human plasminogen type 2 purified from plasma; 5.77 mol sialic acid/mol Pg |  |  | 13.6 ± 1.04 | Yes | No | bind to 1-LN cells in a dose-dependent manner with high affinity | 18.1 ± 2.4 | bind to this DPP IV in a dose-dependent and saturable manner |  |
| Pg 2ε: glycoform of human plasminogen type 2 purified from plasma; 5.34 mol sialic acid/mol Pg |  |  | 3.8 ± 0.83 | Yes | No | bind to 1-LN cells in a dose-dependent manner with high affinity | 9.4 ± 0.8 | bind to this DPP IV in a dose-dependent and saturable manner |  |
| Pg 2φ: glycoform of human plasminogen type 2 purified from plasma; 13.65 mol sialic acid/mol Pg |  |  |  |  |  | does not bind; also recorded: No binding |  | No specific binding | No Binding |
